The target in data set [1] is hNurr1_RXRγFL (NURR1/RXRγ heterodimer) (Homo sapiens, UniProt P43354+P48443). Nature of the data set: Transactivation assay in Cos-7 cells, NURR-1-Gal4 / RXRγ, luciferase reporter. Type of data set: cell-based. As to conditions: for Emax: COS-7, read-out: hNurr1_RXRγFL Eff (%), efficacy in % relative to the reference XCT0135908 at 2·10^−5 M (=100%); for pEC50: Cos-7 cells, overnight incubation. Put shortly:
(§1)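 Cos-7 cells co-transfected with human NURR-1-Gal4 chimera, human RXRα or RXRγ, and 5Gal4pGL3-TK-Luc reporter; compounds added at 10^−4 to 3·10^−10 M final, overnight incubation, luciferase read. Induction over each heterodimer's baseline expressed as % of reference RXR agonist XCT0135908 (2·10^−5 M) taken as 100%.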

In data set [2] the target is hNurr1_RXRαFL (NURR1/RXRα heterodimer) (Homo sapiens, UniProt P19793+P43354). Nature of the data set: Transactivation assay in Cos-7 cells, NURR-1-Gal4 / RXRα, luciferase reporter. Type of data set: cell-based. As to conditions: for Emax: COS-7, read-out: hNurr1_RXRαFL Eff (%), efficacy in % relative to the reference XCT0135908 at 2·10^−5 M (=100%); for pEC50: Cos-7 cells, overnight incubation. Put shortly: as §1

A short description of data set [3]: Plasma and cerebral pharmacokinetic profile after oral administration. Type of data set: in vivo, male C57B16 mouse. As to conditions: oral administration 10 mg/kg in the mouse; for Kp: male, C57B16, brain/plasma, read-out: Ratio AUCbrain/AUCplasma. Here is the method:
A first series of in vivo assays were conducted with some compounds according to the invention, for the purpose of determining their plasma and cerebral pharmacokinetic profile in the male C57B16 mouse and thus verify that the compounds were capable of crossing the blood-brain barrier. The following procedure was used.
Male C57B16 mice (25-30 g) obtained from the Janvier establishment, Le Genest-St-Isle, France were used for this study (12 mice per dose). The animals were fed with standard rodent feed (Purina Mills, St. Louis, Mo.), placed in cages and subjected to light/darkness cycles of 12 h/12 h, the temperature of the room being maintained at 22±2° C. and the humidity at 55±10%. The mice were not fasting before administration. Water was supplied ad libitum throughout the study. The assayed compound was administered orally at 10 mg/kg. For oral administration at 10 mg/kg, the animals were force-fed with 10 mL/kg of a suspension of the assayed compound, prepared in methylcellulose 400 cp 1%. The animals were euthanized by anaesthesia at intervals of 15 min, 30 min, 1 h, 3 h, 6 h and 8 h after force-feeding. At each interval, blood was collected and the brain was removed from each euthanized animal. 1 mL of blood collected in 1.5 mL tubes containing 20 μL of evaporated anticoagulant (solution of sodium heparinate at 1000 IU/mL) was centrifuged at 4500 g for 3 min, obtaining about 400 μL of plasma. The plasma was distributed in 2 aliquots of 200 μL which were stored at −20° C. until extraction by protein precipitation and then analysis by liquid chromatography coupled with tandem mass spectrometry (LC-MS/MS) for quantification of the assayed compound. The brains were immersed in liquid nitrogen directly after removal, then stored at −20° C. for analysis. The brains were then ground in the presence of aqueous/organic solvent mixture to obtain a homogenate. These homogenates were then centrifuged and the assayed compound was extracted from the supernatant by liquid-liquid extraction, then quantified by LC-MS/MS.
The pharmacokinetic parameters were determined according to a non-compartmental approach using Excel. The area under curve (AUC0-t) was determined by the linear trapezoidal method. This method allows estimation of the integral of the concentrations over an interval of time (AUC0-t) and is based on the sum of the areas of the trapeziums delimited by the concentrations measured at the time of sampling (example AUC0-8 h=AUC0-0.25 h+AUC0.25 h-0.5 h+AUC0.5 h-t+AUCt-8 h). The penetration of the compounds through the blood-brain barrier is assessed from the ratio of the AUC measured in the brain to that measured in plasma. As an example, with the compounds of examples 32 and 49, the following results were obtained: […]

Data set [4] has as its system mice treated with 1-methyl-4-phenyl-1,2,3,6-tetrahydropyridine (MPTP). Nature of the data set: MPTP mouse model, dopamine in the striatum. The following applies: oral, twice a day for 11 days; MPTP 25 mg/kg i.p. once a day for 5 days; FIGS. 1 and 2. Type of data set: in vivo, male C57BL6/J mice. The procedure: The compounds of examples 32 and 49 were assayed on a model of mice treated with 1-methyl-4-phenyl-1,2,3,6-tetrahydropyridine (MPTP) in order to confirm their potential activities. MPTP is a neurotoxin which causes permanent symptoms of Parkinson's disease by destroying certain neurons in the substantia nigra of the brain. The following procedure was used.
Male C57BL6/J mice aged 10-12 weeks at the start of the studies were distributed in groups of 8 animals. The compounds were administered orally, twice a day for a total of 11 days. Administration began 3 days before the treatment with the MPTP toxin at 25 mg/kg. MPTP was administered once a day by intraperitoneal injection for 5 days. Administration of the assayed compounds was continued for 3 days after the treatment with MPTP. One group of mice received the carrier only (0.5% solution of methylcellulose). The animals were euthanized after the last force-feeding and the striatum was removed. Dopamine was extracted from the striatum and the amount of dopamine (DA) expressed in ng per g of striatum (mean±SEM) was measured by high-performance liquid chromatography (HPLC) with electrochemical detection.

pEC50: −log10 of the molar value.

Chain of hNurr1_RXRαFL (NURR1/RXRα heterodimer) (P19793 whole entry, the tested form may be a part): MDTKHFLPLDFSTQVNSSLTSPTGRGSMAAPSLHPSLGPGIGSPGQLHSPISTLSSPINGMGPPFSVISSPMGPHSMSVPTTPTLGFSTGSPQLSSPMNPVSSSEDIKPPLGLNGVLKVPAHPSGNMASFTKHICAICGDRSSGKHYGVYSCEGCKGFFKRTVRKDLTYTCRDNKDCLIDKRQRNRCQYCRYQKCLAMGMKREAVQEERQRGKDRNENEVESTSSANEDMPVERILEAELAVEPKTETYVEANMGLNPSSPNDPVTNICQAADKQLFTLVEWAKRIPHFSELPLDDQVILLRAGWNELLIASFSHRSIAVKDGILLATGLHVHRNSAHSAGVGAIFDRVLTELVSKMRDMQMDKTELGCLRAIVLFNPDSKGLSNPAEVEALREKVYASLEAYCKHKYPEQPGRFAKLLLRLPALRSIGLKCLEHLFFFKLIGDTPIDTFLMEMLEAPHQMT
Chain of hNurr1_RXRαFL (NURR1/RXRα heterodimer) (P43354 328-598): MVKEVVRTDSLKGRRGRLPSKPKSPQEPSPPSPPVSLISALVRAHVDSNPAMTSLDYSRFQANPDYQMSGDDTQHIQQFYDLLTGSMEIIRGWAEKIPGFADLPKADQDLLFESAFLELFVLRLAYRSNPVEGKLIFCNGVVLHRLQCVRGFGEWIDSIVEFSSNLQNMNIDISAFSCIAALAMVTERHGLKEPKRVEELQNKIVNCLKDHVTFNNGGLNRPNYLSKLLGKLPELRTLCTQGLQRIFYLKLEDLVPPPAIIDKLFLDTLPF
Chain of hNurr1_RXRγFL (NURR1/RXRγ heterodimer) (P43354 328-598): as above
Chain of hNurr1_RXRγFL (NURR1/RXRγ heterodimer) (P48443 whole entry, the tested form may be a part): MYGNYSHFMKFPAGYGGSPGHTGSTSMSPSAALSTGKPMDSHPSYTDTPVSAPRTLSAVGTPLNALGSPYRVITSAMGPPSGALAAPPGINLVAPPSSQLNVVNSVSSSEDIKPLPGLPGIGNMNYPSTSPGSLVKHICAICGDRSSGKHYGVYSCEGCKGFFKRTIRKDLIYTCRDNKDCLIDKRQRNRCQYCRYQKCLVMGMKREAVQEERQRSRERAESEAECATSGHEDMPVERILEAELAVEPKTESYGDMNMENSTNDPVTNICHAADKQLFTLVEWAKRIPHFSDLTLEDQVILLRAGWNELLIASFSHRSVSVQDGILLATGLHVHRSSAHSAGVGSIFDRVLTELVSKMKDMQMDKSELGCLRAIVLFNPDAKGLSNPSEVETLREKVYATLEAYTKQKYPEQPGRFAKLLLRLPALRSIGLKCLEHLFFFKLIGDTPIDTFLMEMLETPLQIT

In turn, `CC(C)c1ccc(S(=O)(=O)n2c(Cc3ccc(C(=O)O)c(F)c3)cc3cc(C(F)(F)F)ccc32)cc1` [Example 2, 2-fluoro-4-[[1-[[4-(1-methylethyl)phenyl]sulfonyl]-5-(trifluoromethyl)-1H-indol-2-yl]methyl]benzoic acid] came in with a melting point of 197 °C. In addition, in data set [1], the Emax worked out at 43% and the pEC50 is 6.14. In addition, in data set [2], the Emax was 63% and the pEC50 is 6.18.
With `CC(C)c1cccc(S(=O)(=O)n2c(Cc3ccc(C(=O)O)cc3)cc3cc(C(F)(F)F)ccc32)c1` [Example 32, 4-[[1-[[3-(1-methylethyl)phenyl]sulfonyl]-5-(trifluoromethyl)-1H-indol-2-yl]methyl]benzoic acid], in data set [1], the Emax was 62% and the pEC50 was 6.66. The compound further gave a negative-log EC50 (pEC50) in data set [2] of 6.99. Moreover, the “hNurr1_RXRαFL Eff (%)” value in data set [2] (efficacy in % relative to the reference XCT0135908 at 2·10^−5 M (=100%)) was determined as 68%. In data set [3], the Kp is 0.8 and the AUCbrain amounted to 3763 ng·h/mL. In addition, in data set [4], the “effect on the MPTP-induced decrease of dopamine in the striatum” value is given as “dose-dependent decrease in the action of MPTP”.
Regarding `CC(C)(C)c1cccc(S(=O)(=O)n2c(Cc3ccc(C(=O)O)cc3)cc3cc(C(F)(F)F)ccc32)c1` [Example 49, 4-[[1-[[3-(1,1-dimethylethyl)phenyl]sulfonyl]-5-(trifluoromethyl)-1H-indol-2-yl]methyl]benzoic acid], in data set [1], the Emax was found to be 71% and the negative logarithm of the EC50 (pEC50) is 6.96. Besides, in data set [2], the Emax was 73% and the pEC50 is 7.32. Besides, in data set [3], the Kp was 0.8 and the AUCbrain is 10491 ng·h/mL. In addition, the “effect on the MPTP-induced decrease of dopamine in the striatum” value in data set [4] is “dose-dependent decrease in the action of MPTP”.
Compound `CC(C)(C)c1cccc(S(=O)(=O)n2c(Cc3ccc(C(=O)O)c(O)c3)cc3cc(C(F)(F)F)ccc32)c1` [Example 56] gave a melting point of 129 °C. In addition, in data set [1], the Emax turned out to be 51% and the pEC50 is 6.38. For the same compound, in data set [2], the Emax stood at 82% and the pEC50 is 5.94.
In the same order, the values of `CC(C)(C)c1cccc(S(=O)(=O)n2c(Cc3ccc(C(=O)O)cc3F)cc3cc(C(F)(F)F)ccc32)c1` [Example 67, 4-[[1-[[3-(1,1-dimethylethyl)phenyl]sulfonyl]-5-trifluoromethyl-1H-indol-2-yl]methyl]-3-fluorobenzoic acid] are 177 °C, 75%, 7.04, 73% and 7.55.
In the same order, the values of `Cc1c(Cc2ccc(C(=O)O)s2)n(S(=O)(=O)c2cccc(C(C)(C)C)c2)c2ccc(C(F)(F)F)cc12` [Example 85, 5-[[1-[[3-(1,1-dimethylethyl)-phenyl]sulfonyl]-3-methyl-5-trifluoromethyl-1H-indol-2-yl]methyl]-thiophene-2-carboxylic acid] are 171 °C, 73%, 6.94, 87% and 7.28.
Turning to `CC(C)(C)c1cccc(S(=O)(=O)n2c(Cc3ccc(CNS(C)(=O)=O)cc3)cc3cc(C(F)(F)F)ccc32)c1` [Example 227, N-[4-[[1-[[3-(1,1-dimethylethyl)phenyl]sulfonyl]-5-(trifluoromethyl)-1H-indol-2-yl]methyl]benzyl]-methanesulfonamide], in data set [1], the Emax was 86% and the pEC50 is 6.50. For the same compound, in data set [2], the Emax was 73% and the pEC50 was 6.66.
In the same order, the values of `CC(C)(C)c1cccc(S(=O)(=O)n2c(Cc3ccc(C4=NOC(=O)C4)cc3)cc3cc(C(F)(F)F)ccc32)c1` [Example 228, 3-[4-[[1-[[3-(1,1-dimethylethyl)phenyl]sulfonyl]-5-(trifluoromethyl)-1H-indol-2-yl]methyl]-phenyl]-4H-isoxazol-5-one] are 63%, 6.47, 90% and 6.95.
Turning to `CC(C)(C)c1cccc(S(=O)(=O)n2c(Cc3ccc(C(=O)NS(=O)(=O)c4ccccc4)cc3)cc3cc(C(F)(F)F)ccc32)c1` [Example 229, N-[4-[[1-[[3-(1,1-dimethylethyl)phenyl]sulfonyl]-5-(trifluoromethyl)-1H-indol-2-yl]methyl]benzoyl]-benzenesulfonamide], in data set [1], the Emax was 70% and the negative-log EC50 (pEC50) was 6.52. In data set [2], the Emax stood at 60% and the pEC50 is 6.80.
For `CC(C)(CO)c1cccc(S(=O)(=O)n2c(Cc3ccc(C(=O)O)cc3)cc3cc(C(F)(F)F)ccc32)c1` [Example 231, 4-[[1-[[3-(2-hydroxy-1,1-dimethylethyl)phenyl]sulfonyl]-5-(trifluoromethyl)-1H-indol-2-yl]methyl]benzoic acid], in data set [1], the Emax is 62% and the negative-log EC50 (pEC50) is 6.79. In addition, in data set [2], the Emax was found to be 81% and the pEC50 is 7.19.

The term pEC50 denotes −log10 of the EC50, conventionally taken in molar units. In general, melting point refers to the temperature of the solid-liquid transition.
